In this experiment the target is T1, human GLP-1 receptor (GLP-1R) (Homo sapiens, UniProt P43220).
T1 construct: expressed in transfected cells; host or cells: HEK293 cells or CHO cells
Kind of experiment: cAMP assay, human GLP-1R cells. The class given is cell-based. The settings on record: for EC50: mean of n1 and n2. Summed up: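 Peptide-stimulated cAMP measured by two-step HTRF after a 30 min room-temperature incubation with receptor-expressing cells (hGLP-1R, hGIPR at 1×10^5 cells/ml; hGCGR at 2×10^5 cells/ml). Duplicate dilutions; EC50 from 4-parameter logistic fit of % Delta F.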
Background: Cyclic AMP is a second messenger, typically raised through Gs and lowered through Gi signalling.

[1] abbreviates: cAMP activity, read-out: Mean pM GLP-1R.

Usually pEC50 stands for the EC50 on a negative log10 scale, so that one unit is a factor of ten.

pEC50: −log10 of the molar value. Like-named read-outs stand apart in the source and are kept apart here. Numbered stars: 1 amine (or outer) side, 2 acyl side, 3 side chain; on linkers, the order of the positions; unused ones are H or OH. Square brackets hold non-standard residues; d marks the D form. Side chains are listed from the residue outwards. Peptide text beside a SMILES is read from it. * marks the point of attachment. γGlu = O=C(O)[C@H](CCC(=O)[*:2])N[*:1]; αMeF = C[C@](N)(Cc1ccccc1)C(=O)O; αMeK = C[C@](N)(CCCCN)C(=O)O; Lauroyl = CCCCCCCCCCCC(=O)*; AEEA = NCCOCCOCC(=O)O; Aib = CC(C)(N)C(=O)O

T1 sequence (P43220 24-463): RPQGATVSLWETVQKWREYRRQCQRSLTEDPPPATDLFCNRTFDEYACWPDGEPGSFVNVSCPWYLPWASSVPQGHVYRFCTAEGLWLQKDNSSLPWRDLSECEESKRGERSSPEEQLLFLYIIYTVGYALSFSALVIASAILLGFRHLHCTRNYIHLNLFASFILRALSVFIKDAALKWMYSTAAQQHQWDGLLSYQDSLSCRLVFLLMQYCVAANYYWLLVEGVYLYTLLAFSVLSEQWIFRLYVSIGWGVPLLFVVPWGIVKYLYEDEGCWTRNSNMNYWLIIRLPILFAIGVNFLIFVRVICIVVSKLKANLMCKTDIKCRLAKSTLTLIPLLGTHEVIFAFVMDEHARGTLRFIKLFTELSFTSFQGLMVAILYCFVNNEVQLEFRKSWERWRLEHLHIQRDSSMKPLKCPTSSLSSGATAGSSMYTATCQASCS

As for `CC[C@H](C)[C@H](NC(=O)[C@](C)(Cc1ccccc1)NC(=O)[C@H](CCC(=O)O)NC(=O)[C@H](CCCCNC(=O)CC[C@H](NC(=O)CC[C@H](NC(=O)CC[C@H](NC(=O)CCCCCCCCCCCCCCCCC(=O)O)C(=O)O)C(=O)O)C(=O)O)NC(=O)[C@H](C)NC(=O)[C@H](C)NC(=O)[C@H](CCC(=O)O)NC(=O)CNC(=O)[C@H](CCC(=O)O)NC(=O)[C@H](CC(C)C)NC(=O)[C@](C)(Cc1ccccc1)NC(=O)[C@H](CO)NC(=O)[C@](C)(CO)NC(=O)[C@@H](NC(=O)[C@H](CC(=O)O)NC(=O)[C@H](CO)NC(=O)[C@@H](NC(=O)[C@](C)(Cc1ccccc1)NC(=O)[C@H](CO)NC(=O)CNC(=O)[C@H](CCC(=O)O)NC(=O)C(C)(C)NC(=O)[C@@H](N)Cc1c[nH]cn1)[C@@H](C)O)C(C)C)C(=O)N[C@@H](C)C(=O)N[C@@](C)(Cc1ccccc1)C(=O)N[C@H](C(=O)N[C@H](C(=O)N[C@@](C)(CCCCN)C(=O)NCC(=O)NCC(N)=O)C(C)C)C(C)C` [compound 157], the EC50 under setting [1] came to 227 pM.

Consider `CC[C@H](C)[C@H](NC(=O)[C@](C)(Cc1ccccc1)NC(=O)[C@H](CCC(=O)O)NC(=O)[C@H](CCCCNC(=O)COCCOCCNC(=O)COCCOCCNC(=O)CCCCCCCCCCCCCCCCC(=O)O)NC(=O)[C@H](C)NC(=O)[C@H](C)NC(=O)[C@H](CCC(=O)O)NC(=O)CNC(=O)[C@H](CCC(=O)O)NC(=O)[C@H](CC(C)C)NC(=O)[C@](C)(Cc1ccccc1)NC(=O)[C@H](CO)NC(=O)[C@](C)(CO)NC(=O)[C@@H](NC(=O)[C@H](CC(=O)O)NC(=O)[C@H](CO)NC(=O)[C@@H](NC(=O)[C@](C)(Cc1ccccc1)NC(=O)[C@H](CO)NC(=O)CNC(=O)[C@H](CCC(=O)O)NC(=O)C(C)(C)NC(=O)[C@@H](N)Cc1c[nH]cn1)[C@@H](C)O)C(C)C)C(=O)N[C@@H](C)C(=O)N[C@@](C)(Cc1ccccc1)C(=O)N[C@H](C(=O)N[C@H](C(=O)N[C@@](C)(CCCCN)C(=O)NCC(=O)NCC(N)=O)C(C)C)C(C)C` [compound 162], for which, under setting [1], the EC50 turned out to be 54 pM. Also, the pEC50 (cAMP activity, second determination (n2), read-out: Primary assay EC50 GLP-1R n2) was 10.26.

For the molecule `CCCCCCCCCCCC(=O)N[C@@H](CCC(=O)NCCOCCOCC(=O)NCCOCCOCC(=O)NCCCC[C@H](NC(=O)CNC(=O)[C@H](CCC(=O)O)NC(=O)[C@H](CC(C)C)NC(=O)[C@H](Cc1ccc(O)cc1)NC(=O)[C@H](CO)NC(=O)[C@H](CO)NC(=O)[C@H](CCCCNC(=O)COCCOCCNC(=O)COCCOCCNC(=O)CC[C@H](NC(=O)CCCCCCCCCCC)C(=O)O)NC(=O)[C@H](CC(=O)O)NC(=O)[C@H](CO)NC(=O)[C@@H](NC(=O)[C@](C)(Cc1ccccc1)NC(=O)[C@H](CO)NC(=O)CNC(=O)[C@H](CCC(=O)O)NC(=O)C(C)(C)NC(=O)[C@@H](N)Cc1c[nH]cn1)[C@@H](C)O)C(=O)N[C@@H](C)C(=O)N[C@@H](C)C(=O)N[C@@](C)(CCCCN)C(=O)N[C@@H](CCC(=O)O)C(=O)N[C@@H](Cc1ccccc1)C(=O)N[C@H](C(=O)N[C@@H](C)C(=O)N[C@@H](CCCCNC(=O)COCCOCCNC(=O)COCCOCCNC(=O)CC[C@H](NC(=O)CCCCCCCCCCC)C(=O)O)C(=O)N[C@H](C(=O)N[C@H](C(=O)N[C@@H](CCC(=O)O)C(=O)NCC(=O)NCC(N)=O)C(C)C)C(C)C)[C@@H](C)CC)C(=O)O` [compound 456] (H-H[Aib]EGS[αMeF]TSDK([AEEA-AEEA-γGlu-Lauroyl])SSYLEGK([AEEA-AEEA-γGlu-Lauroyl])AA[αMeK]EFIAK([AEEA-AEEA-γGlu-Lauroyl])VVEGG-NH2; N-terminus assumed), for the setting “Table 11, tris-lipidated peptides, read-out: Primary assay EC50 Mean pM GLP-1R”, the EC50 was found to be 170 pM. The pEC50 (Table 11, tris-lipidated peptides, replicate n1, read-out: Primary assay EC50 GLP-1R n1) is 9.94 and the pEC50 (Table 11, tris-lipidated peptides, replicate n2, read-out: Primary assay EC50 GLP-1R n2) is 9.65.

The values above are taken from patent US20210221866A1, “PROTEASE-RESISTANT LIPIDATED GLP-1 ANALOGS” (MEDIMMUNE LIMITED, priority 2015, published 2021).
